In patent US9637520B2, “Template-fixed peptidomimetics with CXCR7 modulating activity” (POLYPHOR AG, priority 2010, dated 2017):
Starred links: 1 amine or outer side, 2 acyl side, 3 side chain; linkers in the order of their positions; H or OH if unused. Non-standard residues stand in square brackets, D forms with d. Residues, ends and D or L forms follow the SMILES beside them. *: point of attachment. Arg(Nω,Nω'-propylene) = N[C@@H](CCCNC1=NCCCN1)C(=O)O; dPro(cis-4-NH2) = N[C@H]1CN[C@@H](C(=O)O)C1; X4 = Cn1ccnc1CNCCC[C@H](N[*:1])C(=O)[*:2]; dPro(4S-NH2) = N[C@@H]1CN[C@@H](C(=O)O)C1; Oic = O=C(O)[C@@H]1C[C@@H]2CCCC[C@@H]2N1; Pro(cis-4-F) = O=C(O)[C@@H]1C[C@H](F)CN1; dPro(3S-OH) = O=C(O)[C@@H]1NCC[C@@H]1O; Pro(3S-OH) = O=C(O)[C@H]1NCC[C@@H]1O; cisHyp = O=C(O)[C@@H]1C[C@H](O)CN1; Tic = O=C(O)[C@@H]1Cc2ccccc2CN1; Agb = N=C(N)NCC[C@H](N)C(=O)O; Agp = N=C(N)NC[C@H](N)C(=O)O; 2Pyrimidinyl = c1cnc(*)nc1; dPip = O=C(O)[C@H]1CCCCN1; Orn = NCCC[C@H](N)C(=O)O; Bn = c1ccc(C*)cc1

What follows are compounds tested against T1, CXCR7 (Homo sapiens, UniProt P25106) (assay: CXCR7 β-arrestin recruitment assay (PathHunter CHO-CXCR7, DiscoverX), agonistic assay). Details: agonistic assay; CHO CXCR7 β-arrestin cells; 90 min at 37° C.; chemiluminescence; read-out: β-Arrestin EC50.
T1 construct: host or cells: CHO (PathHunter CHO-CXCR7 β-arrestin cells)
Format: cell-based
Description: Lyophilized peptides were weighed on a Microbalance (Mettler MX5) and dissolved in DMSO to a final concentration of 10 mM unless otherwise stated. Stock solutions were kept at +4° C., and protected from light.
2.2 CXCR7 β-Arrestin Recruitment Assay
The PathHunter CHO-CXCR7 (DiscoverX) assay was performed according to the manufacturer's protocol. In brief, CHO CXCR7 β-arrestin cells were seeded at a density of 5000 cells per well in 40 μl of F12 medium in black 96-half volume well culture plates and incubated overnight at 37° C. in a humidified atmosphere with 5% CO2. The next day, serial dilutions of PEM compounds have been prepared in DMSO and subsequently diluted in HBSS buffer containing 0.1% BSA.
For agonistic assay, 10 μl of compound solution or a solution of stromal cell-derived factor-1 (SDF-1) as positive control was added to the cells with a final DMSO concentration of 1% (v/v). The plate was incubated for 90 min at 37° C. in 5% CO2 incubator with gentle shaking (300 rpm) before addition of 40 μl of detection reagent per well. Reaction was developed for 90 min at room temperature in the dark with shaking, and chemiluminescence was measured with a Topcount (Perkin Elmer) luminescence counter.

T1 sequence (P25106 whole entry): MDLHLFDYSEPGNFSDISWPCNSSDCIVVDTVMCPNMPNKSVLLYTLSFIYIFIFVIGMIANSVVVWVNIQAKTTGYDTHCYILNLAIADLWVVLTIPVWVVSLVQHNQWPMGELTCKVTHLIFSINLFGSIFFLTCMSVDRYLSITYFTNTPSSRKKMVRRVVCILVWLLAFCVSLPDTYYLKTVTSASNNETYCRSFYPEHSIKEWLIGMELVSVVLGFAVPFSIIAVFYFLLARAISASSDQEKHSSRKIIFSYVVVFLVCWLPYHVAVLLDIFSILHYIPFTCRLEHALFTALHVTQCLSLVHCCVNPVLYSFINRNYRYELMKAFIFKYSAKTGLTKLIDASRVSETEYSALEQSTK

Compound	EC50
CC[C@H](C)[C@@H]1NC(=O)[C@H]([C@@H](C)O)NC(=O)[C@H]2CCCN2C(=O)[C@H](Cc2c[nH]c3ccccc23)NC(=O)[C@H](CNC(=N)N)NC(=O)[C@@H](CCCNC(=N)N)NC1=O [Ex. 23, cyclo(-Ile-^DArg-Agp-Trp-^DPro-Thr-)] (cyclo([Agp]W[dP]TI[dR]))	90.5 ± 60.7 nM
CC[C@H](C)[C@@H]1NC(=O)[C@H]([C@@H](C)O)NC(=O)[C@H]2CCCN2C(=O)[C@H](Cc2c[nH]c3ccccc23)NC(=O)[C@H](CCNC(=N)N)NC(=O)[C@@H](CCCNC(=N)N)NC1=O [Ex. 24, cyclo(-Ile-^DArg-Agb-Trp-^DPro-Thr-)] (cyclo([Agb]W[dP]TI[dR]))	22.3 ± 29.3 nM
N=C(N)NCCC[C@@H]1NC(=O)[C@H](Cc2c[nH]c3ccccc23)NC(=O)[C@@H](Cc2ccccc2)NC(=O)[C@H](Cc2c[nH]c3ccccc23)NC(=O)[C@@H]2Cc3ccccc3CN2C(=O)[C@H]2C[C@H](N)CN2C1=O [Ex. 25, cyclo(-Trp-^DPhe-Trp-Arg-^DPro((4S)NH2)-Tic-)] (cyclo(R[dPro(4S-NH2)][Tic]W[dF]W))	17.5 ± 12.2 nM
NCCC[C@@H]1NC(=O)[C@H](Cc2c[nH]c3ccccc23)NC(=O)[C@@H](Cc2ccccc2)NC(=O)[C@H](Cc2c[nH]c3ccccc23)NC(=O)[C@@H]2Cc3ccccc3CN2C(=O)[C@H]2C[C@@H](N)CN2C1=O [Ex. 29, cyclo(-Trp-^DPhe-Trp-Orn-^DPro((4R)NH2)-Tic-)] (cyclo([Orn][dPro(cis-4-NH2)][Tic]W[dF]W))	26.1 ± 16.7 nM
N=C(N)NCCC[C@@H]1NC(=O)[C@H](Cc2c[nH]c3ccccc23)NC(=O)[C@@H](Cc2ccccc2)NC(=O)[C@H](Cc2c[nH]c3ccccc23)NC(=O)[C@@H]2C[C@@H]3CCCC[C@@H]3N2C(=O)[C@H]2C[C@@H](N)CN2C1=O [Ex. 41, cyclo(-Trp-^DPhe-Trp-Arg-^DPro((4R)NH2)-Oic-)] (cyclo([Oic]W[dF]WR[dPro(cis-4-NH2)]))	20.9 ± 33.7 nM
N=C(N)NCCC[C@@H]1NC(=O)[C@H](Cc2c[nH]c3ccccc23)NC(=O)[C@@H](Cc2ccccc2)NC(=O)[C@H](Cc2c[nH]c3ccccc23)NC(=O)[C@@H]2C[C@H](F)CN2C(=O)[C@H]2CCCN2C1=O [Ex. 43, cyclo(-Trp-^DPhe-Trp-Arg-^DPro-Pro((4S)F)—)] (cyclo([Pro(cis-4-F)]W[dF]WR[dP]))	119 ± 42.3 nM
N=C(N)NCCC[C@@H]1NC(=O)[C@@H]2C[C@H](OCc3ccccc3)CN2C(=O)[C@H]2CCCN2C(=O)[C@H](CCCNC(=N)N)NC(=O)[C@H](Cc2c[nH]c3ccccc23)NC(=O)[C@@H](Cc2ccccc2)NC1=O [Ex. 48, cyclo(-Arg-^DPhe-Trp-Arg-^DPro-(4S)-Hyp(Bn)-)] (cyclo(R[dF]WR[dP][cisHyp](Bn)))	76.9 ± 24.7 nM
CC[C@H](C)[C@@H]1NC(=O)[C@@H]2[C@@H](O)CCN2C(=O)[C@H]2CCCCN2C(=O)[C@H](Cc2c[nH]c3ccccc23)NC(=O)[C@H](CCCNC(=N)N)NC(=O)[C@@H](CCCNC(=N)N)NC1=O [Ex. 54, cyclo(-Ile-^DArg-Arg-Trp-^DPip-Pro((3S)OH)—)] (cyclo(I[dR]RW[dPip][Pro(3S-OH)]))	8.2 ± 3.4 nM

Second part, the compound after the results:

EC50	Compound
632 ± 23.3 nM	CC[C@H](C)[C@@H]1NC(=O)[C@H]([C@@H](C)O)NC(=O)[C@H]2[C@@H](O)CCN2C(=O)[C@H](Cc2c[nH]c3ccccc23)NC(=O)[C@H](CCCNC(=N)N)NC(=O)[C@@H](CCCNC(=N)N)NC1=O [Ex. 55, cyclo(-Ile-^DArg-Arg-Trp-^DPro((4S)OH)-Thr-)] (cyclo(I[dR]RW[dPro(3S-OH)]T))
949 ± 75.3 nM	CC[C@H](C)[C@@H]1NC(=O)[C@H]([C@@H](C)O)NC(=O)[C@H]2C[C@@H](N)CN2C(=O)[C@H](Cc2c[nH]c3ccccc23)NC(=O)[C@H](CCCNC(=N)N)NC(=O)[C@@H](CCCNC(=N)N)NC1=O [Ex. 56, cyclo(-Ile-^DArg-Arg-Trp-^DPro((4R)NH2)-Thr-)] (cyclo(I[dR]RW[dPro(cis-4-NH2)]T))
453 ± 186 nM	CC[C@H](C)[C@@H]1NC(=O)[C@H]([C@@H](C)O)NC(=O)[C@H]2CCCN2C(=O)[C@H](Cc2c[nH]c3ccccc23)NC(=O)[C@H](CCCNc2ncccn2)NC(=O)[C@@H](CCCNC(=N)N)NC1=O [Ex. 68, cyclo(-Ile-^DArg-Orn(Ar2)-Trp-^DPro-Thr-)] (cyclo(I[dR][Orn](2Pyrimidinyl)W[dP]T))
337 ± 92.6 nM	CC[C@H](C)[C@@H]1NC(=O)[C@H]([C@@H](C)O)NC(=O)[C@H]2CCCN2C(=O)[C@H](Cc2c[nH]c3ccccc23)NC(=O)[C@H](CCCNCc2nccn2C)NC(=O)[C@@H](CCCNC(=N)N)NC1=O [Ex. 69, cyclo(-Ile-^DArg-Orn(Ar7)-Trp-^DPro-Thr-)] (cyclo(I[dR][X4]W[dP]T))
3.2 ± 2.7 nM	CC[C@H](C)[C@@H]1NC(=O)[C@H]([C@@H](C)O)NC(=O)[C@H]2CCCN2C(=O)[C@H](Cc2c[nH]c3ccccc23)NC(=O)[C@H](CCCNC2=NCCCN2)NC(=O)[C@@H](CCCNC(=N)N)NC1=O [Ex. 71, cyclo(-Ile-^DArg-Orn(A56)-Trp-^DPro-Thr-)] (cyclo(I[dR][Arg(Nω,Nω'-propylene)]W[dP]T))
